Measurements published in ChEMBL document CHEMBL1145849, “QSAR and the rational design of long-acting dual D2-receptor/beta 2-adrenoceptor agonists” (J Med Chem, 2003).
Values joined by “and” are separate entries in the source; they are usually repeats but may differ in a detail not shown here. Equal values may be shown once.

Legend:
[1] = molecular target: Beta-2 adrenergic receptor (Cavia porcellus) (UniProt Q8K4Z4)
Description: In vitro beta-2 duration was determined using electrically stimulated guinea-pig isolated trachea superfusion system

physchem [2] = settings: octanol/water, pH 7.4, logD
physchem [3] = test: physchem
Description: Ionization constant (pKa)

physchem [4] = test: physchem; remark: listed apart in the source
Description: (§1) Classification of ionization constant (pKa)

physchem [5] = test: physchem; remark: listed apart in the source
Description: as §1

[6] = molecular target: D(2) dopamine receptor (Homo sapiens) (UniProt P14416); test: […] D2 duration was determined using electrically stimulated guinea-pig isolated trachea superfusion system; format: functional; settings: Cavia porcellus, target entry is the homologue from another species
Sequence of D(2) dopamine receptor (Homo sapiens) (P14416 whole entry, the tested form may be a part): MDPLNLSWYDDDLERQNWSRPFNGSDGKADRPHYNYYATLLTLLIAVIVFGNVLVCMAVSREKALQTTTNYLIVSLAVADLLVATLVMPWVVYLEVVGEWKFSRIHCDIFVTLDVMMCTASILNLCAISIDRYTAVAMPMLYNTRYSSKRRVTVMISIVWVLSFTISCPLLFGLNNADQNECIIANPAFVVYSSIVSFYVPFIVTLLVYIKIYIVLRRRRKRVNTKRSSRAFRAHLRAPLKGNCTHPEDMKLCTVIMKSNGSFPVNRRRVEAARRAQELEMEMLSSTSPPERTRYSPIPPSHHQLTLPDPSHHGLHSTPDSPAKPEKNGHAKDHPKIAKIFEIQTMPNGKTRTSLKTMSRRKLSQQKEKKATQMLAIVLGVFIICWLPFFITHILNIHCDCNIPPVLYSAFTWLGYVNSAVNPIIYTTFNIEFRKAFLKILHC

[7] = molecular target: Beta-2 adrenergic receptor (Cavia porcellus) (UniProt Q8K4Z4); settings: Trachea
Description: Beta-2-adrenoceptor potency was determined in rings of guinea-pig isolated trachea

[8] = octanol/water, pH 7.4

Sequence of Beta-2 adrenergic receptor (Cavia porcellus) (Q8K4Z4 whole entry, looked up): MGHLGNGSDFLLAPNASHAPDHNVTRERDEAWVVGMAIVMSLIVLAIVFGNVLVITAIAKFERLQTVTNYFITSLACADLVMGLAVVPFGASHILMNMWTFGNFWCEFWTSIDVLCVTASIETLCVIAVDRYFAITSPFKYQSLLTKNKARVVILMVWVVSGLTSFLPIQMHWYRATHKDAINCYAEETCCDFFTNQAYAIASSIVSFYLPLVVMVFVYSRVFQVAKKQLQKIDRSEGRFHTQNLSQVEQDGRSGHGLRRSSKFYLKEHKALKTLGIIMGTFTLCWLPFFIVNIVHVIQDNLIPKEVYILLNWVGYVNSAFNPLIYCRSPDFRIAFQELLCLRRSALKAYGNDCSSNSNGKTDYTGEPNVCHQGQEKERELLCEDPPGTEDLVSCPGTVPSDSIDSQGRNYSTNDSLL

Row | Beta2 duration [1] | logD (physchem [2]) | pKa (physchem [3]) | pKa (physchem [4]) | pKa (physchem [5]) | D2 duration [6] | p[A]50 [7] | logD [8] | SMILES
1 | 57 min | 1.34 | > 8 | 7.62 | 8.75 | 150 min | 9.27 | – | O=C(CCOCCc1ccccc1)NCCNCCc1ccc(O)c2nc(O)sc12
2 | – | – | – | – | – | 150 min | – | – | CN(CCCS(=O)(=O)CCOCCc1ccccc1)CCc1ccc(O)c2nc(O)sc12
3 | > 180 min | 2.34 | > 8 | – | – | – | 7.57 | – | O=S(=O)(CCCNCCc1ccc(O)c2nc(O)sc12)CCSCCc1ccccc1
4 | > 180 min | 3.29 | > 8 | – | – | – | 6.78 | – | O=[N+]([O-])c1ccc(CCOCCCSCCNCCc2ccc(O)c3nc(O)sc23)cc1
5 | 69 min | 1.22 | > 8 | – | – | – | 7.51 | – | O=S(=O)(CCOCCc1ccccc1)NCCCNCCc1ccc(O)c2nc(O)sc12
6 | 77 min | 2.32 | < 8 | – | – | – | 6.73 | – | O=[N+]([O-])c1ccc(CCOCCCS(=O)(=O)CCNCCc2ccc(O)c3nc(O)sc23)cc1
7 | 135 min | 1.56 | > 8 | 7.5 | 8.58 | – | 7.39 | – | O=S(=O)(CCOCCc1ccccc1)NCCNCCc1ccc(O)c2nc(O)sc12
8 | > 180 min | 3.61 | > 8 | – | – | – | 7.27 | – | Oc1nc2c(O)ccc(CCNCCSCCCOCCCc3ccccc3)c2s1
9 | > 180 min | 1.19 | > 8 | 7.65 | 9.23 | – | 8.82 | – | Oc1nc2c(O)ccc(CCNCCCOCCOCCc3ccccc3)c2s1
10 | 32 min | 1.91 | < 8 | – | – | – | 8.65 | – | O=S(=O)(CCCOCCc1ccc(O)cc1)CCNCCc1ccc(O)c2nc(O)sc12
11 | > 1080 min | 2.06 | > 8 | 7.55 | 8.68 | – | 7.16 | – | Oc1nc2c(O)ccc(CCNCCOCCCOCCc3ccccc3)c2s1
12 | > 180 min | 3.36 | > 8 | – | – | – | 7.4 | – | O=S(=O)(CCCOCCc1ccc(Br)cc1)CCNCCc1ccc(O)c2nc(O)sc12
13 | 126 min | 2.87 | < 8 | – | – | – | 7.61 | – | Cc1cnc(CCOCCCS(=O)(=O)CCNCCc2ccc(O)c3nc(O)sc23)s1
14 | > 180 min | 1.75 | > 8 | – | – | – | 7.51 | – | Oc1nc2c(O)ccc(CCNCCSCCCOCCc3ccccn3)c2s1
15 | 60 min | 1.26 | > 8 | – | – | – | 7.01 | – | O=C(NCCCCCCNCCc1ccc(O)c2nc(O)sc12)Nc1ccccc1
16 | > 180 min | 2.31 | > 8 | – | 10.2 | 270 min | 8.02 | 3.53 | O=c1[nH]c2c(O)ccc(CCNCCCSCCOCCc3ccccc3)c2s1
17 | > 180 min | 2.86 | > 8 | – | – | – | 8.36 | – | Oc1nc2c(O)ccc(CCNCCSCCCOCCc3ccccc3)c2s1

Row | Beta2 duration [1] | logD (physchem [2]) | pKa (physchem [3]) | pKa (physchem [4]) | pKa (physchem [5]) | D2 duration [6] | p[A]50 [7] | logD [8] | SMILES
18 | 84 min | 1.12 | > 8 | – | – | – | 8.47 | – | [O-][S+](CCCNCCc1ccc(O)c2nc(O)sc12)CCOCCc1ccccc1 (centres undefined)
19 | 79 min | 2.38 | > 8 | – | – | – | 6.48 | – | O=S(=O)(CCNCCc1ccc(O)c2nc(O)sc12)NCCOCCc1ccccc1
20 | 45 min | 2.35 | < 8 | – | – | – | 7.72 | – | O=S(=O)(CCCOCCc1nccs1)CCNCCc1ccc(O)c2nc(O)sc12
21 | 140 min | 1.37 | > 8 | 7.35 | 9.07 | 270 min | 7.93 | – | O=S(=O)(CCCNCCc1ccc(O)c2nc(O)sc12)CCOCCc1ccccc1
22 | > 180 min | 2.8 | > 8 | – | – | – | 7.86 | – | Oc1nc2c(O)ccc(CCNCCCSCCOCCCc3ccccc3)c2s1
23 | 24 min | 0.95 | < 8 | – | – | – | 7.49 | – | O=S(=O)(CCCOCCc1ccccn1)CCNCCc1ccc(O)c2nc(O)sc12
24 | > 180 min | 2.88 | < 8 | – | – | – | 7.7 | – | O=S(=O)(CCCOCCc1ccc(NS(=O)(=O)c2ccccc2)cc1)CCNCCc1ccc(O)c2nc(O)sc12
25 | 52 min | 1.13 | > 8 | – | – | – | 7.44 | – | O=S(=O)(CCCNCCc1ccc(O)c2nc(O)sc12)CCOCCOc1ccccc1
26 | 28 min | 0.9 | > 8 | – | – | – | 6.73 | – | O=S(=O)(CCCNCCc1ccc(O)c2nc(O)sc12)CCNCCOc1ccccc1
27 | 150 min | 1.91 | > 8 | – | – | – | 8.63 | – | O=C(CCOCCCc1ccccc1)NCCNCCc1ccc(O)c2nc(O)sc12
28 | > 180 min | 3.62 | < 8 | – | – | – | 7.76 | – | O=S(=O)(CCCOCCCCc1ccccc1)CCNCCc1ccc(O)c2nc(O)sc12
29 | > 180 min | 2.73 | > 8 | – | – | 270 min | 8.23 | – | Oc1nc2c(O)ccc(CCNCCCCCCOCCc3ccccc3)c2s1
30 | 22 min | 1.29 | > 8 | – | – | 90 min | 7.18 | – | O=C(CCCCCNCCc1ccc(O)c2nc(O)sc12)NCCc1ccccc1
31 | 172 min and 80 min | 1.65 | > 8 | – | – | 270 min | 8.24 | 1.34 | O=c1[nH]c2c(O)ccc(CCNCCCS(=O)(=O)CCCOCCc3ccccc3)c2s1
32 | > 180 min | 2.11 | > 8 | – | – | – | 7.06 | – | Oc1nc2c(O)ccc(CCNCCCSCCOCCOc3ccccc3)c2s1
33 | 75 min | 0.83 | > 8 | – | – | – | 7.32 | – | Oc1nc2c(O)ccc(CCNCCCSCCOCCc3ccccn3)c2s1
34 | 146 min | 2.51 | < 8 | 8.55 | 6.58 | – | 8.09 | – | O=c1[nH]c2c(O)ccc(CCNCCS(=O)(=O)CCCOCCc3ccccc3)c2s1 [SIBENADET]
